Measured values taken from ChEMBL document CHEMBL1121905, “erythro-5-[1-Hydroxy-2-(isopropylamino)butyl]-7-hydroxycarbostyril, a terbutaline-type derivative of the bronchodilator procaterol” (1981).
pEC50: −log10 of the molar value.

Tests used:
Canis familiaris [1] = experiment: Compound was tested in anesthetized dogs for inhibition of bronchoconstriction (equipotent dose at ED50) Mean ED50 value, obtained at a dose of 0.054 ug/kg; type: functional; settings: Canis lupus familiaris, Lung
Cavia porcellus [2] = organism: Cavia porcellus; experiment: Intrinsic activity in guinea pig trachea; type: functional
Cavia porcellus [3] = organism: Cavia porcellus; experiment: Compound was tested for effective dose required for 25% of maximum response in guinea pig right atrium; maximal activity was obtained at 1 x 10 e-5 mol/L
Canis familiaris [4] = experiment: Compound was tested in anesthetized dogs for increase in heart rate (equipotent dose at ED25) Mean ED25 value, obtained at a dose of 0.021 ug/kg; type: functional; settings: Canis lupus familiaris
Cavia porcellus [5] = organism: Cavia porcellus; experiment: Compound was tested for effective dose required for 50% of maximum response in guinea pig trachea; type: functional; settings: read-out: ED50 (the source's name)
Cavia porcellus [6] = organism: Cavia porcellus; experiment: Intrinsic activity (n=5) in guinea pig right atrium
Cavia porcellus [7] = organism: Cavia porcellus; experiment: Compound was tested for effective dose required for 25% of maximum response in guinea pig right atrium

Row | pEC50 (Cavia porcellus [5]) | SMILES | ED50 (Canis familiaris [1]) | Intrinsic activity (Cavia porcellus [2]) | ED25 (Cavia porcellus [3]) | ED25 (Canis familiaris [4]) | Intrinsic activity (Cavia porcellus [6]) | ED25 (Cavia porcellus [7])
1 | 6.65 | CCC(NC(C)C)C(O)c1cc(O)cc2nc(O)ccc12 (configuration not stated) | 0.0417 mg/kg | 0.5 | maximal activity was obtained at 1 x 10 e-5 mol/L | 0.0871 mg/kg | – | –
2 | 5.91 | CCC(NC(C)C)C(O)c1cc(O)cc2c1CCC(=O)N2 (configuration not stated) | – | 0.6 | – | – | 0.27 | 566 nM
3 | 7.96 | CCC(NC(C)C)C(O)c1ccc(O)c2[nH]c(=O)ccc12 (configuration not stated) [PROCATEROL] | – | 0.98 | – | – | 0.6 | 5.7 nM

Second part, the compound before the results:

Row | SMILES | pEC50 (Cavia porcellus [5]) | ED50 (Canis familiaris [1]) | Intrinsic activity (Cavia porcellus [2]) | ED25 (Cavia porcellus [3]) | ED25 (Canis familiaris [4]) | Intrinsic activity (Cavia porcellus [6]) | ED25 (Cavia porcellus [7])
4 | CC(C)NCC(O)c1ccc(O)c(O)c1 (configuration not stated) [ISOPROTERENOL] | – | 0.001 mg/kg | – | – | 0.001 mg/kg | – | –
5 | CC(C)(C)NCC(O)c1cc(O)cc(O)c1 (configuration not stated) [TERBUTALINE] | – | – | 0.7 | – | – | 0.73 | –
